# Measured values published in article PMC8624133, “10th Trends in Medical Mycology Held on 8 to 11 October 2021, Aberdeen, Scotland, Organized by the European Confederation of Medical Mycology (ECMM)” (Journal of Fungi, 2021).
# Like-named read-outs stand apart in the source and are kept apart here.
# Key:
# Sporothrix brasiliensis = experiment: Murine subcutaneous sporotrichosis model; format: in vivo, Balb/c mice; details: oral gavage once a day, 30 days; ITZ 50 mg/kg; DD 1, 5 or 10 mg/kg
# Description: Materials & Methods: 50 Balb/c mice, male, five to seven-week-old, were subcutaneous infected (left footpad) by a clinical isolate of S. brasiliensis (5.4 × 10^7 yeast/mice). Treatments started seven days post-inoculation (p.i) in all five groups (10 mice/each): G1 control group (placebo—receiving just the diluent of the drugs), G2 treatment group (itraconazole—ITZ 50 mg/kg); G3 to G5 DD treatment groups, 1, 5 and 10 mg/kg, respectively. All mice were treated once a day by oral gavage, for 30 consecutive days. Physical conditions and behavior were daily evaluated, and individual weight was weekly determined. At the 32nd day p.i. (48 h after the end of the treatments) animals were euthanasied and lung, liver, brain, kidneys, testicle and footpad were recovered aseptically and homogenized to mycological analysis. Fungal burden in each organ was measured by quantitatively counting colony-forming units (CFU). The determination of colony forming units (CFU)/gram of tissue (g) of S. brasiliensis in internal organs of groups were compared by non-parametric tests using Kruskal-Wallis combined with Wilcoxon. The weight loss assay was calculated considering the percentage of loss and/or increase between the value corresponding to the fungal inoculation day and to the end of the treatment.
# [1] = tested on: clinical dermatophyte isolates; experiment: Inhibition of dermatophyte biofilm formation; format: cell-based
# Description: Materials and Methods: The study population consisted of 50 dermatophyte isolates that were collected from 2019 to 2020 from patients referred to the two mycology laboratory of Shiraz, Iran. The isolates were identified by ITS gene region sequencing. The suspension (equivalent to 0.5 McFarland) of the isolates was used to evaluate the ability of the isolates to form biofilms and also the effect of itraconazole, terbinafine and griseofulvin at concentrations of 2–32 μg/mL on inhibiting biofilm formation. Two optical microscope and a scanning electron microscope were used to study the microscopic structure of biofilms formed on the surface of 96-well plate wells.
# eumycetoma = details: in vivo; cited from earlier work
# Text: Mycetoma: Mycetoma is a chronic, progressive, implantation inflammatory disease characterised by severe and stigmatising deformities, disability, and high morbidity. The disease is caused by fungi (eumycetoma) and several Actinomycetales members (actinomycetoma). Its estimative global burden is 9000 cases. There are no robust epidemiological studies on mycetoma in SA, but it is tconsidered the third most prevalent endemic IM in SA, especially among low socioeconomic adult males living in rural areas from Argentina, Brazil, Colombia and Venezuela, where the principal agents are Madurella spp. a ...
# C. auris = experiment: EUCAST EDef 7.3.1 MIC and checkerboard microdilution; format: cell-based, Candida auris
# Description: Methods: We studied 22 C. auris isolates obtained from different clinical samples from the Hospital La Fe, Valencia, Spain (eight from blood culture, seven from oropharynx and seven from urine cultures). Candida parapsilosis ATCC 22019 and Candida krusei ATCC 6258 were used as quality controls. The minimum inhibitory concentration (MIC) was determined according to the European Committee on Antibiotic Susceptibility Testing (EUCAST) EDef 7.3.1 document. The interaction between citral and the rest of antifungal drugs was assessed by a checkerboard microdilution method. […] The in vitro interaction of the drug combinations was interpreted in terms of the fractional inhibitory concentration index (FICI) as follows: FICI < 1, synergistic; FICI equal to 1, additive; and FICI > 1, indifferent or antagonistic.
# C. auris isolates = experiment: AmB Etest; format: cell-based, Candida auris; details: for MIC: Candidozyma auris
# Description: Methods: A total of 313 C. auris isolates representing five geographic clades (I—South Asian; II—East Asian; III—South African; IV—South American; V—Iranian) were investigated in this study. Antifungal susceptibility testing (AFST) with AmB was performed with Etest according to the manufacturer instructions. […] Ergosterol biosynthesis pathway genes ERG2 (C-8 sterol isomerase), ERG3 (C-5 sterol desaturase), ERG6 (sterol 24-C-methyltransferase), and ERG11 (lanosterol 14-α-demethylase) were amplified and sequenced. […] AmB susceptibility was then determined for the transformed strain.
# Candida sp. = format: cell-based
# Candida non-albicans = experiment: In vitro fluconazole susceptibility, neonatal invasive candidiasis; format: cell-based
# Candida isolates = format: cell-based, Candida spp.; details: E-Test strips
# Candida auris isolates = experiment: microbe, parasite or virus in culture; format: cell-based; details: Candidozyma auris; […]; IQR given; read-out: median MIC
# [2] = tested on: Cryptococcus bacillisporus (AFLP5/VGIII); experiment: E-test method; format: cell-based
# C. albicans = experiment: In vitro fluconazole susceptibility, neonatal invasive candidiasis; format: cell-based, Candida albicans
# [3] = tested on: C. parapsilosis SC isolates; experiment: Candidemia survey Greece, susceptibility per hospital protocol; format: cell-based, Candida parapsilosis species complex
# C. blankii = experiment: Vitek 2 fungal susceptibility card; format: cell-based, Candida blankii
# [4] = tested on: S. apiospermum (SA) biofilms; experiment: Mature biofilm damage, XTT metabolic reduction assay; details: Scedosporium apiospermum, 24 h, read-out: BF MIC50
# [5] = Voriconazole level monitoring with flucloxacillin co-administration; format: in vivo, human
# Text: Methods: Synoptic description of a significant interaction in 2 critically ill patients and analysis of interaction screening in validated data bases.
structure (smiles),measurement,setting,value
CCC(C)n1ncn(-c2ccc(N3CCN(c4ccc(OCC5COC(Cn6cncn6)(c6ccc(Cl)cc6Cl)O5)cc4)CC3)cc2)c1=O (centres unmarked) [itraconazole],fungal burden of internal organs vs placebo group,Sporothrix brasiliensis,lower fungal burden
same,IC50,"[1]; inhibition of biofilm formation, read-out: mean concentrations of IC50",3.78 µg/mL
same,samples with IC50 in concentration <2,[1]; tested at 2–32 μg/mL,70%
same,Cure rate,eumycetoma,25–35%
C[C@@H]1[C@H](O)[C@@H](C)/C=C/C=C/C=C/C=C/C=C/C=C/C=C/[C@H](O[C@@H]2O[C@H](C)[C@@H](O)[C@H](N)[C@@H]2O)C[C@@H]2O[C@](O)(C[C@@H](O)C[C@@H](O)[C@H](O)CC[C@@H](O)C[C@@H](O)CC(=O)O[C@H]1C)C[C@H](O)[C@H]2C(=O)O [amphotericin B],MIC of amphotericin B in combination with citral,C. auris,0.016 µg/mL
same,MIC,"C. auris; Candidozyma auris, 22 clinical isolates",0.25 µg/mL
same,isolates with AmB MIC values ≥2 mg/L,C. auris isolates; 19 of 313 isolates,6.1%
same,MIC,"C. auris isolates; read-out: AmB MIC, South African isolate SA18, ERG6 missing base pairs 52–543",6 µg/mL
same,MIC,"C. auris isolates; read-out: AmB MIC, susceptible strain after replacement with ERG6 of SA18",> 32 µg/mL
same,MIC,"C. auris isolates; read-out: AmB MIC, susceptible strain with wild-type ERG6",0.5 µg/mL
OC(Cn1cncn1)(Cn1cncn1)c1ccc(F)cc1F [fluconazole],Susceptibility to fluconazole (share of isolates),Candida sp.; 2019,66%
same,Susceptibility to fluconazole (share of isolates),Candida sp.; full 12 month period in 2020,82%
same,Susceptibility to fluconazole (share of isolates),"Candida sp.; overall, entire period reviewed",74%
same,Susceptibility to fluconazole (share of isolates),Candida sp.; to date in January–April 2020,100%
same,dose-dependent susceptible pathogens,Candida non-albicans,6%
same,in vitro resistant pathogens,Candida non-albicans,6%
same,comparative effectiveness among antifungals,Candida isolates,most effective antifungal
same,MIC,Candida auris isolates,48 µg/mL
same,antifungal susceptibility,[2],low response
same,dose-dependent susceptible pathogens,C. albicans,0%
same,in vitro resistant pathogens,C. albicans,7%
same,Resistance,[3],20%
same,susceptibility,C. blankii,resistant
C[C@@H](c1ncncc1F)[C@](O)(Cn1cncn1)c1ccc(F)cc1F [voriconazole],MIC50,[4],32 µg/mL
same,voriconazole level,"[5]; Case 1, 2 days after flucloxacillin interruption, 8 mg/kg bid",< 0.2 µg/mL
same,voriconazole level,"[5]; Case 1, day 10 of combination with high dose flucloxacillin, 4 mg/kg bid",< 0.2 µg/mL
same,voriconazole level,"[5]; Case 1, subsequently after 3 days",3 µg/mL
same,voriconazole level,"[5]; Case 2, after flucloxacillin stop and dose increase to 6 mg/kg bid",4.2 µg/mL
same,voriconazole level,"[5]; Case 2, before flucloxacillin",3.5 µg/mL
same,voriconazole level,"[5]; Case 2, during high dose flucloxacillin, two levels",< 0.5 µg/mL
same,voriconazole level,"[5]; Case 2, further increase, toxic level",15.1 µg/mL
same,voriconazole level,"[5]; Case 2, intravenous maintenance 4 mg/kg bid",3.2 µg/mL
